Reference: PubChem BioAssay (NCI)
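Cells were grown in 96-well plates and exposed to each compound for 48 hours at five concentrations; endpoints were interpolated linearly between bracketing concentrations, or set to the highest concentration if not reached. GI50 = concentration required for 50% inhibition of growth. TGI: total growth inhibition.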

Assays:
Assay in all cases: growth of human tumour cells (NCI), 48 h
HCC-2998 colon = tested on: HCC-2998 colon
U251 CNS = tested on: U251 CNS
NCI-H522 lung = tested on: NCI-H522 lung
HCT-15 colon = tested on: HCT-15 colon
T-47D breast = tested on: T-47D breast
SK-MEL-28 melanoma = tested on: SK-MEL-28 melanoma
SK-MEL-5 melanoma = tested on: SK-MEL-5 melanoma
TK-10 renal = tested on: TK-10 renal
EKVX NSCLC = tested on: EKVX NSCLC
RPMI-8226 leukemia = tested on: RPMI-8226 leukemia

Structure (SMILES)	GI50 (HCC-2998 colon) [µM]	TGI (HCC-2998 colon) [µM]	GI50 (U251 CNS) [µM]	TGI (U251 CNS) [µM]	GI50 (NCI-H522 lung) [µM]	TGI (NCI-H522 lung) [µM]	GI50 (HCT-15 colon) [µM]	TGI (HCT-15 colon) [µM]	GI50 (T-47D breast) [µM]	TGI (T-47D breast) [µM]	GI50 (SK-MEL-28 melanoma) [µM]	TGI (SK-MEL-28 melanoma) [µM]	GI50 (SK-MEL-5 melanoma) [µM]	TGI (SK-MEL-5 melanoma) [µM]	GI50 (TK-10 renal) [µM]	TGI (TK-10 renal) [µM]	GI50 (EKVX NSCLC) [µM]	TGI (EKVX NSCLC) [µM]	GI50 (RPMI-8226 leukemia) [µM]	TGI (RPMI-8226 leukemia) [µM]
O=Nc1c(-c2cccc([N+](=O)[O-])c2)nc2ncccn12	15.2	28.9	13.9	32.5	10.6	25.1	3.77	17.8	6.29	39.1	15.2	30.2	15.2	32.2	11	30.2	18.3	43.3	1.47	6.56
Nc1nc(Cl)nc2c1ncn2C1O[C@H](CO)[C@@H](O)[C@@H]1F (stereo not given in full)	0.075	> 100	0.442	> 100		> 100	4.73	> 100	6.94	> 100	> 100	> 100	0.34	> 100		> 100	1.51	> 100	> 31.5	> 100
O=C1c2cc3c(cc2-c2c1c1ccc([N+](=O)[O-])cc1c(=O)n2CCCCl)OCO3	0.489	5.43	0.0828		> 85.9	> 100	2.09	> 100		> 100	0.525	> 100	0.246	2.59	> 54.3	> 100	6.13	> 100	0.275	> 26.6
Cn1cccc1-c1cc(-c2ccc(Br)cc2)nc(N)c1C#N	> 100	> 100	> 100	> 100	66	> 100	> 100	> 100	> 100	> 100	> 100	> 100	> 100	> 100	> 100	> 100	> 100	> 100	78.7	> 100
COc1ccccc1Nc1nc(-c2cc3cccc(C(F)(F)F)c3oc2=O)cs1	0.344	> 47.7	0.11	29.3	0.0402	1.51	0.151	> 100	0.0535	> 100	1.64	> 100	0.169	0.627	13.5	81.2	0.164	> 100	0.24	> 71.4
CC(C)(C)c1ccc(-c2nnc(SCc3ccc(Cl)cc3)n2-c2cccc(C(F)(F)F)c2)cc1		> 62.4		> 100		> 100		> 100		> 100		> 100		> 100		> 100		81.9		30.6
COc1ccc2c(CNCCCCO)cc3cc4c(cc3c2c1)OCO4	1.66	6.57	1.85	7.29	0.228	2.93	1.43	8.61	3.71	> 46.7	4.93	11	0.818	2.13	1.85	9.98	2.78	11.4	0.655	3.77
COC(=O)c1ccc2c(c1)nc(-c1ccc(Cl)cc1)n2-c1cc(C(C)(C)C)[nH]n1	3.9	19.8	4.13	22.7	3.21	20.3	4.36	> 100	3.64	> 100	3.38	15.5	2.02	5.1	6.94	> 100	3.06	> 100	3.93	11.2
O=C1c2cccnc2-c2nc(-c3ccc([N+](=O)[O-])cc3)cc3c2c1nc1ccccc13	8	26.5	3.44	> 100	2	6.95	1.97	8.04	10.6	54.9	12.7	27.8	0.825	2.45	8.41	24.9	10.7	44.6	8.88	71.5
Fc1ccc(Nc2nc(Nc3ccc(-c4nc5ccccc5[nH]4)cc3)nc(N3CCCC3)n2)cc1	2.39	6.25	2.37	5.82	2.16	4.91	2.25	6.03	2.28	5.58	1.87	3.66	11.8	24.4	17.1	31.3	2.27	12.8	2.28	6.3
COC(=O)c1c(-c2ccccc2)csc1NC(=O)c1c(-c2ccccc2)noc1C	> 21	> 100	0.321	> 100	1.56	> 26.3	0.0809	> 100	3.41	> 100	1.56	> 100	0.185	> 100	> 100	> 100		> 100	0.793	> 100
COc1ccc(C2CC(c3cc(OC)c(OC)c(OC)c3)=NN2)cc1 (stereo not given)	9.35	37.2	4.52	> 100	3.43	35.9	3.48	> 100	3.61	> 100	38.7	> 100	4.29	17.8	42	> 100	9.26	> 100	3.23	18.6
C[n+]1c2ccccc2c(NC2CCNCC2)c2[nH]c3ccccc3c21	0.331	1.63	0.198	1.91	0.124	0.699	10.3	> 46	0.217	2.04	1.03	2.95	0.488	2.32	2.33	8.53	0.391	5.39	0.164	1.17
O=C(/C=N/O)c1c(-c2ccccc2)[nH]c(-c2ccccc2)c1-c1ccccc1		58.1		32.3		30.8		45.8		> 100		39		32.8		40.8		19		31.4
CC1=C(C(=O)Nc2ccc(F)c(Cl)c2)C(c2cccc(Cl)c2)NC(=O)N1 (stereo not given)	18.3	32.5	16.5	32.5	15.9	33	20.6	46.9	15.4	53.1	13.8	28	13.6	26.9	15.8	41.6	24.2	72.6	16.3	46.9
